Values joined by “and” are separate entries in the source; they are usually repeats but may differ in a detail not shown here. Identical values can stand only once. Marks after values point to notes of the source that are not given here.
What was measured:
Type in all cases: in vivo
rats [1] = test: Anti-ulcerogenic action under Ds-conditions; conditions: listed as Phenotropil
rats [2] = test: 14-day immobilization in antiorthostatic position (Ds), thymus, spleen, adrenal mass ratios Kt; conditions: Ds-conditions; for S/A: spleen/adrenals ratio (mg/100 g baseline body weight); for S/T: spleen/thymus ratio (mg/100 g baseline body weight); for T/A: thymus/adrenals ratio (mg/100 g baseline body weight)
cAMP = cAMP level in blood plasma of mice; conditions: for increase of cAMP level: mice, 60 minutes before test; for cAMP level: mouse blood plasma, one hour after a single injection
mice [3] = test: Benzedrine-induced stimulation of orientation-locomotor activity
Description: In regard to influencing the effects of Benzedrine, Phenotropil also can provide, depending on the dose, the diametrically opposite activity when in combination with psychostimulants. This fact must be taken into account in combined use of various pharmacological agents.

rats [4] = test: Acute toxicity, single intragastric administration in immature rats; conditions: for Dead/total number: rats 30-35 days
Protocol: Tables 2, 2.1 and 2.2 present the results of acute toxicity studies of the Compounds with active substance content in at least white outbred male mice (body weight 18-24 g) and white outbred rats 30-35 days of age, of both sexes with a single dose. Calculation of toxic doses was made using the Wilcoxon and Litchfield method. Observations were made over 24 hours and 14 days after a single dose.
LD50 in rat pups after intragastric administration was not found. Intragastric administration to rat pups of doses of more than 1000 mg/kg is technically impossible due to the small volume of the stomach (Table 2.2).

[5] = Plasma electrolyte balance at course administration; conditions: rats
mice [6] = test: Open field test; conditions: for Distance covered during 1st min (horizontal motor activity) / Distance during 2nd min (horizontal motor activity) / Distance during 3rd min (horizontal motor activity) / Explorations during 2nd min / Explorations during 3rd min / Number of explorations (holes) during 1st min / Number of washings during 1st min / Total distance at 3 min (horizontal motor activity) / Total number of explorations at 3 min / Total number of visits to the center at 3 min / Total number of washings at 3 min / Visits to the center during 1st min / Visits to the center during 2nd min / Visits to the center during 3rd min / Washings during 2nd min / Washings during 3rd min / vertical motor activity, 1st min (Distance covered) / vertical motor activity, 2nd min / vertical motor activity, 3rd min / vertical motor activity, total at 3 min: mice
Protocol: Study of the effect of Phenotropil (100, 200, 300 mg/kg) on motor activity and exploratory behavior by the open field test on mice (16-24 g) in comparison with olanzapine (1 mg/kg) is shown in Tables 5-5.4. Olanzapine at higher doses has sedative activity, so for comparison with Phenotropil, the drug was used only at a dose of 1 mg/kg. The drugs and distilled water to control groups were injected intraperitoneally 40 minutes prior to the study. […] This indicates the ability of the drug to reversibility, unlike olanzapine.

[7] = mice, Benzedrine 3 mg/kg + Phenotropil 50.0 mg/kg
[8] = mice, Benzedrine 3 mg/kg + Phenotropil 100.0 mg/kg
[9] = mice, Benzedrine 3 mg/kg + Phenotropil 300.0 mg/kg
[10] = mice, doses of 50 and 100 mg/kg (so in the source)
[11] = 4-week administration 300 mg/kg

## NC(=O)CN1CC(c2ccccc2)CC1=O (racemic) [Compound 1, (RS)-2-(2-oxo-4-phenylpyrrolidine-1-yl)acetamide]
Rats [1]; 25 mg/kg + 5.0% glucose solution, 25 mg/kg
  ulcer number vs control (100): −45% and −42 * %
Rats [1]; 50 mg/kg + 5.0% glucose solution, 50 mg/kg
  ulcer number vs control (100): −63% and −63 * %
Rats [1]; 100 mg/kg + 5.0% glucose solution, 100 mg/kg
  ulcer number vs control (100): −80% and −80 * %
Rats [2]; 25 mg/kg
  S/A: 7.6 ± 1.2
  S/T: 2.2 ± 0.1
  T/A: 5.5 ± 1.1
Rats [2]; 50 mg/kg
  S/A: 8.2 ± 1.2
  S/T: 1.6 ± 0.1
  T/A: 6.6 ± 1.1
Rats [2]; 100 mg/kg
  S/A: 8.8 ± 1.2
  S/T: 1.2 ± 0.2
  T/A: 5.5 ± 1.1
cAMP; single i.p. 10 mg/kg
  increase of cAMP level: 21%
cAMP; single i.p. 50 mg/kg
  increase of cAMP level: 65.5%
cAMP; single i.p. 100 mg/kg
  increase of cAMP level: 96.3%
cAMP; 10 mg/kg
  cAMP level: 4.56 ± 0.67 pikomol/50 μl plasma
cAMP; 50 mg/kg
  cAMP level: 6.24 ± 0.81 pikomol/50 μl plasma
cAMP; 100 mg/kg
  cAMP level: 7.40 ± 0.62 pikomol/50 μl plasma
Mice [3]; [7]
  Number of pulses for 3 min.: 126.0 ± 12.4
  Number of stand-ups for 3 min.: 15.9 ± 2.0
Mice [3]; [8]
  Number of pulses for 3 min.: 129.2 ± 14.2
  Number of stand-ups for 3 min.: 24.2 ± 4.8
Mice [3]; [9]
  Number of pulses for 3 min.: 48.1 ± 9.4
  Number of stand-ups for 3 min.: 12.1 ± 4.6
Mice [3]; [10]
  increase of orientation and exploratory behavior, horizontal component, vs control: 240.0%
  increase of orientation and exploratory behavior, vertical component, vs control: 89.0%
Mice [3]; single 300 mg/kg
  reduction of psychostimulant effect of Benzedrine, horizontal component: ~42.9%
  reduction of psychostimulant effect of Benzedrine, vertical component: 14.8%
Rats [4]; single intragastric 800 mg/kg
  Dead/total number: 0/10
  % of dead rat pups: 0%
Rats [4]; single intragastric 1000 mg/kg
  Dead/total number: 0/10
  % of dead rat pups: 0%
[5]; 4-week administration 50 mg/kg
  serum Ca: 4.21 ± 0.23 mEq/l
  serum K: 3.15 ± 0.15 mEq/l
  serum Na: 127.3 ± 2.71 mEq/l
[5]; [11]
  serum Ca: 4.69 ± 0.24 mEq/l
  serum K: 3.44 ± 0.20 mEq/l
  serum Na: 125.7 ± 3.43 mEq/l
Mice [6]; 100 mg/kg
  increase of horizontal locomotor activity: 112.2%
  increase of number of visits to the center vs control: 111%
  increase of total exploratory behavior index: 50%
  increase of total vertical locomotor activity: 237.5%
  reduction of total index of washes vs control: 25%
Mice [6]; 200 mg/kg
  decrease of total exploratory behavior index: 32%
  increase of horizontal locomotor activity: 151.8%
  increase of number of visits to the center vs control: 155%
  vertical activity over three minutes vs control: −6.3%
Mice [6]; 300 mg/kg
  increase of horizontal locomotor activity: 99.5%
  increase of number of visits to the center vs control: 133%
  increase of total index of explored holes: 27%
  number of rearings at the first minute vs control: −75%
  total number of rearings for 3 minutes vs control: +56%
Mice [6]; 100 mg/kg i.p.
  Distance covered during 1st min (horizontal motor activity): 23.7 ± 5*^
  Distance during 2nd min (horizontal motor activity): 22.5 ± 3.1
  Distance during 3rd min (horizontal motor activity): 44 ± 10.7
  Explorations during 2nd min: 1.5 ± 0.4
  Explorations during 3rd min: 1.3 ± 0.7
  Number of explorations (holes) during 1st min: 0.5 ± 0.3
  Number of washings during 1st min: 0.2 ± 0.2
  Total distance at 3 min (horizontal motor activity): 90.2 ± 8.7
  Total number of explorations at 3 min: 3.3 ± 0.9
  Total number of visits to the center at 3 min: 3.9 ± 0.6
  Total number of washings at 3 min: 0.3 ± 0.2^
  Visits to the center during 1st min: 0.7 ± 0.5
  Visits to the center during 2nd min: 2.2 ± 0.8
  Visits to the center during 3rd min: 1 ± 0.5
  Washings during 2nd min: 0.1 ± 0.2^
  Washings during 3rd min: 0 ± 0
  vertical motor activity, 1st min (Distance covered): 2.3 ± 1.1
  vertical motor activity, 2nd min: 3.8 ± 1.7
  vertical motor activity, 3rd min: 4.7 ± 1.6
  vertical motor activity, total at 3 min: 10.8 ± 4.2
Mice [6]; 200 mg/kg i.p.
  Distance covered during 1st min (horizontal motor activity): 31.7 ± 2.8
  Distance during 2nd min (horizontal motor activity): 41.8 ± 7.0
  Distance during 3rd min (horizontal motor activity): 33.5 ± 4.7
  Explorations during 2nd min: 0.8 ± 0.5
  Explorations during 3rd min: 0.5 ± 0.5
  Number of explorations (holes) during 1st min: 0.2 ± 0.2
  Number of washings during 1st min: 0 ± 0
  Total distance at 3 min (horizontal motor activity): 107 ± 11.5
  Total number of explorations at 3 min: 1.5 ± 0.9
  Total number of visits to the center at 3 min: 4.7 ± 0.7
  Visits to the center during 1st min: 0.3 ± 0.2
  Visits to the center during 2nd min: 2.7 ± 0.4
  Visits to the center during 3rd min: 1.7 ± 0.4
  Washings during 2nd min: 0 + 0 *
  Washings during 3rd min: 0 ± 0
  vertical motor activity, 1st min (Distance covered): 0 ± 0
  vertical motor activity, 2nd min: 1.3 ± 0.7
  vertical motor activity, 3rd min: 1.7 ± 0.7
  vertical motor activity, total at 3 min: 3.0 ± 1.3
Mice [6]; 300 mg/kg i.p.
  Distance covered during 1st min (horizontal motor activity): 29.7 ± 12.3
  Distance during 2nd min (horizontal motor activity): 27.2 ± 10.2
  Distance during 3rd min (horizontal motor activity): 28 ± 6.4
  Explorations during 2nd min: 1.5 ± 0.8
  Explorations during 3rd min: 1.0 ± 0.8
  Number of explorations (holes) during 1st min: 0.3 ± 0.2
  Number of washings during 1st min: 0.2 ± 0.2
  Total distance at 3 min (horizontal motor activity): 84.8 ± 28.0
  Total number of explorations at 3 min: 2.8 ± 1.4
  Total number of visits to the center at 3 min: 4.2 ± 0.8
  Total number of washings at 3 min: 0.2 ± 0.2
  Visits to the center during 1st min: 1.2 ± 0.4
  Visits to the center during 2nd min: 1.3 ± 0.5
  Visits to the center during 3rd min: 1.7 ± 0.5
  Washings during 2nd min: 0 ± 0
  Washings during 3rd min: 0 ± 0
  vertical motor activity, 1st min (Distance covered): 0.3 ± 0.2
  vertical motor activity, 2nd min: 2 ± 1.2
  vertical motor activity, 3rd min: 2.7 ± 1.1
  vertical motor activity, total at 3 min: 5.0 ± 1.8
